# From PubChem BioAssay (NCI)
#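 Assay format: 96-well plates, 48-hour exposure. Here, GI50 denotes the concentration required for 50% inhibition of growth. TGI: total growth inhibition.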 Where a SMILES comes first, the peptide text is derived from it. Bridges are numbered along the chain shown (N, C = ends). [ ]: non-standard residue; d: D form. ξ: configuration not given here. ξThr(3R) = C[C@@H](O)C(N)C(=O)O; S5 = C=CCCC[C@](C)(N)C(=O)O
# Legend:
# Test in all cases: DTP human tumour cell line panel, 48 h
# [1] = tested on: ACHN renal
# [2] = tested on: OVCAR-3 ovarian
# [3] = tested on: CCRF-CEM leukemia
# [4] = tested on: HCC-2998 colon
# [5] = tested on: SR leukemia
# [6] = tested on: KM12 colon
# [7] = tested on: HCT-15 colon
# [8] = tested on: RXF 393 renal
SMILES,GI50 [1] [µM],TGI [1] [µM],GI50 [2] [µM],TGI [2] [µM],GI50 [3] [µM],TGI [3] [µM],GI50 [4] [µM],TGI [4] [µM],GI50 [5] [µM],TGI [5] [µM],GI50 [6] [µM],TGI [6] [µM],GI50 [7] [µM],TGI [7] [µM],GI50 [8] [µM],TGI [8] [µM]
C/C(=N/O)c1ccc2c(c1)/C(=N/O)c1ccccc1-2,20.6,46.1,25.5,57.7,25.4,62.6,20.3,35.9,12.5,31.8,18.1,35.4,17.1,33.7,21.3,44.8
COc1cc(/C=C/C(=O)N2CCC=CC2=O)cc(OC)c1OC,1.73,3.28,3.34,11.9,2.12,6.29,1.77,3.56,1.75,> 100,3.18,12.8,1.83,5.01,1.73,4.07
O=C(/C=C/C(Cl)(Cl)Cl)Nc1ccc(Cl)cc1,,6.37,,17.3,,3.97,,14.5,,3.25,,6.07,,11.4,,6.62
NC(=O)CC1(O)C=C(Br)C(=O)C(Br)=C1,3.44,12.3,2.22,5.34,0.194,0.434,18.2,33,1.7,14.2,13.8,27.2,2.65,7.75,1.9,4.05
COc1cccc(/C=C/c2ccnc3ccccc23)c1OC,,> 10,,> 10,,> 10,,> 10,,,,> 10,,> 10,,> 10
NC1=NC(=O)/C(=C/c2ccc3ncccc3c2)S1,> 25,> 25,> 25,> 25,> 25,> 25,> 25,> 25,7.11,> 25,> 25,> 25,> 25,> 25,> 25,> 25
COc1ccc(Cl)cc1Nc1nc(C(F)(F)F)ccc1C(=O)N/N=C/c1cccnc1,4.04,> 100,0.665,6.82,0.624,> 100,1.99,> 100,,,3.63,> 100,1.42,> 100,,
CCOc1ccc2c(c1)CN(Cc1ccc(Cl)cc1)CO2,19.3,55,21.6,51.1,29.9,98.5,18.7,35,15.6,63.7,18.3,35.5,16.5,34.1,13.8,29.3
COc1ccc(-c2[nH]nc(N)c2-c2cc(OC)c3c(c2)OCO3)cc1,6.88,> 100,2.48,6.05,3.47,38.8,5.97,31.4,1.97,18.1,2.35,31.6,3.69,> 100,3.63,16.1
O=C1C=CC(=Nc2cccc3c(N=C4C=CC(=O)O4)cccc23)O1,,78.5,,> 100,,,,> 100,,48.1,,> 100,,> 100,,50
CCCCCCCCCCCCCCCCCCOc1ccccc1CC(=O)OCC[N+](CC)(CC)CC,4.39,11.3,1.73,6.33,1.48,13.1,1.22,3.9,,,1.42,3.86,4.39,13.1,0.924,2.06
COc1cccc(C2=C(c3cn(C)c4cc(F)ccc34)C(=O)NC2=O)c1,10.5,> 25,> 18.7,> 25,9.63,> 25,> 25,> 25,6.72,> 25,> 17.4,> 25,12.7,> 25,8.79,> 25
COc1ccc(C(=O)O[C@H]2[C@H](O[C@H]3[C@@H](O)COC(O[C@H]4C[C@H]5[C@@H]6CC=C7C[C@@H](O)CC[C@]7(C)[C@H]6CC[C@]5(C)[C@H]4[C@H](C)C(=O)CCC(C)C)[C@@H]3OC(C)=O)OC[C@@H](O)[C@@H]2O)c(C)c1 (some centres undefined),0.0312,38.9,11.1,28.9,< 0.01,0.13,4.1,25.2,< 0.01,> 100,0.0674,21.3,0.0332,2.05,< 0.01,< 0.01
OCc1ccc(N2CCc3cc(F)ccc3C2)cc1Cl,11.8,24.4,0.0518,0.288,3.9,28.9,1.58,12.8,3.29,24,13.2,27.3,3.98,21.2,0.993,17.5
N#Cc1ccccc1C#C/C=C\C#CC#C/C=C\C#Cc1ccccc1C#N,7.39,37.8,4.55,21.4,4.95,> 100,,,,,16.9,38.4,12.7,> 100,15,68.2
O=C(Nc1cccc(-n2cc(-c3ccncc3)c(-c3ccc(O)c(Cl)c3)n2)c1)c1cc(C(F)(F)F)cc(C(F)(F)F)c1,2.79,> 50,,,2.21,> 50,3.06,> 50,1.43,5.68,2.05,12.5,2.39,> 50,1.25,9.1
CCN(CC)c1ccc2nc3c4ccccc4c(=O)cc-3n(-c3ccccc3)c2c1,2.13,14.9,1.16,3.85,2.33,7.72,,,,,1.69,4.46,2.1,49.3,1.94,5.83
ClCc1ccc(Cn2cnc3c(Cl)ncnc32)cc1,4.04,11.5,8.73,18.5,4.64,> 48.8,,,0.0902,,10.3,30.2,10.6,> 36.7,13,30.4

SMILES,GI50 [1] [µM],TGI [1] [µM],GI50 [2] [µM],TGI [2] [µM],GI50 [3] [µM],TGI [3] [µM],GI50 [4] [µM],TGI [4] [µM],GI50 [5] [µM],TGI [5] [µM],GI50 [6] [µM],TGI [6] [µM],GI50 [7] [µM],TGI [7] [µM],GI50 [8] [µM],TGI [8] [µM]
C[C@H](CS)C(=O)N1c2ccccc2C[C@H]1C(=O)O,,> 100,,> 100,,> 100,,> 100,,> 100,,> 100,,> 100,,
CC(=O)N[C@H](C(=O)N[C@@H](CCCNC(=N)N)C(=O)N[C@@H](CCCCN)C(=O)N[C@@H](CCCNC(=N)N)C(=O)NC(C(=O)N[C@@H](CC(C)C)C(=O)N[C@@H](CCCNC(=N)N)C(=O)N[C@@]1(C)CCC/C=C\CCC[C@@](C)(C(=O)N[C@@H](CCCNC(=N)N)C(=O)N[C@@H](CCC(=O)O)C(=O)N[C@@H](CC(C)C)C(=O)N[C@H](C(=O)N[C@@H](CCC(=O)O)C(N)=O)C(C)C)NC(=O)[C@H](CCC(N)=O)NC(=O)[C@H](CC(C)C)NC(=O)[C@H](CC(C)C)NC1=O)[C@@H](C)O)C(C)C (stereo partly drawn) (Ac-VRKR[ξThr(3R)]LR[S5]LLQ[S5]RELVE-NH2; staple (Z) 8-12),6.97,14.7,8.16,15.7,11.2,34.2,7.67,18.2,,,1.99,8.03,6.22,14.7,2.7,12.1
O=Cc1c(-c2ccccc2)[nH]c2ccccc2c1=O,,> 100,,> 100,,,,> 100,,37.4,,> 100,,> 100,,
CCN(CC)CCN1C(=O)C2C3C(=O)CC(C)(CC3C)C2C1=O (centres undefined),> 100,> 100,,,> 100,> 100,> 100,> 100,> 100,> 100,> 100,> 100,> 100,> 100,> 100,> 100
Cc1ccc(-c2nc3cc(Cl)c(Cl)cc3nc2C#N)cc1,39,> 100,> 100,> 100,> 100,> 100,,,,,> 100,> 100,> 100,> 100,> 100,> 100
O=S(=O)(c1ccccc1)N1CN2CN(C1)CN(S(=O)(=O)c1ccccc1)C2,,> 100,,> 100,,,,> 100,,> 100,,> 100,,> 100,,> 100
Cc1ccc(/C=C/c2c(C(=O)/C=C/c3ccc(Cl)cc3)c(C)nc3ccccc23)cc1,1.54,2.88,1.84,3.51,,,1.49,2.96,1.92,> 100,1.87,3.77,1.45,3.97,1.79,3.45
C(=Nc1cnc2ccccc2c1)c1ccc2ccccc2n1,,> 100,,> 100,,> 100,,,,71.4,,> 100,,> 100,,> 100
O=C(O)c1c(Cl)c(Cl)c(Cl)c(Cl)c1C(=O)Nc1ccc2cn[nH]c2c1,,> 100,,> 100,,,,,,,,> 100,,> 100,,> 100
CN(C)C=NC1CCC(C(C)(C)C)CC1 (centres undefined),,43.8,,28.8,,,,27.9,,,,,,32.8,,45.6
O=c1ccc(=O)n(-c2ccccc2)[nH]1,,> 100,,> 100,,> 100,,> 100,,,,> 100,,> 100,,> 100
COc1ccc2nc(-c3ccccc3)cc(Nc3cccc(C(C)=O)c3)c2c1,5.78,22.5,,,> 100,> 100,13.2,45.1,,,,,4.93,22.1,,
O=C(COc1ccc(OCC(=O)N2C(=O)CN(c3ccccc3)C2=S)cc1)N1C(=O)CN(c2ccccc2)C1=S,> 25,> 100,> 25,> 100,,,> 25,> 100,> 100,> 100,> 25,> 100,> 25,> 100,> 25,> 100
CCOC(=O)c1c(NC(=O)c2ccccc2)sc2c3c(ccc12)OCN(C)C3,1.58,2.98,1.79,3.26,1.97,5.75,1.03,2.35,,,1.75,3.3,1.2,2.51,1.57,3.2
C/C(=N\n1c(O)c(C#N)cc(C#N)c1=O)c1ccncc1,> 100,> 100,> 100,> 100,> 100,> 100,> 100,> 100,> 100,> 100,> 100,> 100,> 100,> 100,,
O=C1c2ccccc2C(=O)c2c1ccc1c(=O)n(-c3ccccc3C(F)(F)F)nnc21,2.7,> 100,0.315,1.42,2.03,> 100,2.45,6.16,,,1.88,5.5,,,2.15,4.87
COC(=O)C1(C)CC2C(C)(CCC3(C)C4=CC=C5C(=CC(=O)C(O)=C5C)C4(C)CCC23C)CC1O (centres undefined),,1.53,,2.24,,0.538,,2.9,,0.575,,4.09,,,,1.37
CCCCCC[C@@H](C)Nc1nc2ccccc2c2occc12,15.5,28.8,13.5,38.2,12.2,39.2,9.35,21.5,,,14,34.4,10.1,21.6,13.9,34.4
